Experimental data as given in patent US20160274108A1, “DIAGNOSTIC METHODS FOR PAR4 ANTAGONIST THERAPY” (BRISTOL-MYERS SQUIBB COMPANY, priority 2013, published 2016).

Key:
[1] = molecular target: T1, protease-activated receptor type 4 (PAR4) (Homo sapiens, UniProt Q96RI0); conditions: abstract of Lee et al., J. Med. Chem., 44(22):3746-3749 (2001); cited from earlier work
T1 sequence (Q96RI0 18-385): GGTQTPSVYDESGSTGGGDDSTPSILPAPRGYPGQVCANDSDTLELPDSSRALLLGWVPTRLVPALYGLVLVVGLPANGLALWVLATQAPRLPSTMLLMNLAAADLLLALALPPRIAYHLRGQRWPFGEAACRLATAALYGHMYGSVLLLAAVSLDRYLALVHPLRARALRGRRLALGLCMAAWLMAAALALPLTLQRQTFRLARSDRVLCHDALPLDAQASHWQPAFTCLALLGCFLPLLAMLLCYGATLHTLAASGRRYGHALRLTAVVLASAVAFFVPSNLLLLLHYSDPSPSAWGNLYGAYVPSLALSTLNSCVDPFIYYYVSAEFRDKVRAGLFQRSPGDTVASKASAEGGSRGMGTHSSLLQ

platelets [2] = assay: Platelet activation by whole blood flow cytometry: fibrinogen binding; type: cell-based, human; conditions: PAR1 1 μM final, 501 healthy subjects
Protocol: (§1) PAR1 and PAR4 agonists were supplied as freeze dried peptides and reconstituted with HEPES buffered saline [HBS, 0.14M NaCl, 5 mM KCl, 1 mM MgSO4, 10 mM HEPES (sodium salt), pH 7.4] to 1 mM concentrations prior to storing in single use aliquots at −80° C. Immediately prior to use PAR1 was thawed and diluted in HBS to 10 μM as a working concentration to give a final assay concentration of 1 μM. Similarly PAR4 was diluted to 100 μM working concentration to give a final assay concentration of 10 μM.
(§2) The antibodies used for flow cytometry were: rabbit FITC-anti-fibrinogen (Dako Ltd, Ely, UK), PE-anti-CD62P and a relevant PE-isotype control (Bristol Institute for Transfusion Science, Bristol, UK). HBS was used for all dilutions.
(§3) Blood was processed within 15 minutes of venesection, with 5 μL of citrated whole blood containing aspirin (100 μM) and hirudin (10 U/mL) being added to 45 μL of HBS containing apyrase (4 U/mL), either FITC-anti-fibrinogen or PE anti-CD62P, and either PAR1 (1 μM final concentration) or PAR4 (10 μM final concentration). […] Platelets were identified by light scatter and results were recorded as the percentage of platelets positive for the relevant activation marker. […]

platelets [3] = assay: Platelet activation by whole blood flow cytometry: P-selectin (CD62P) expression; type: cell-based, human; conditions: PAR1 1 μM final, 501 healthy subjects
Protocol: as §1, §2, §3

CCOC(=O)c1ccc(-c2nn(Cc3ccccc3)c3ccccc23)cc1
inhibition of PAR4-dependent platelet activation [1]: selective and potent inhibitor

PAR1: PAR1 agonist, freeze dried peptide supplied by Bristol-Myers Squibb; Example 2 control is Compound A, SFFLRR (SEQ ID NO: 39)
fibrinogen binding, % positive platelets, median (platelets [2]): 19.7%
P-selectin expression, % positive platelets, median (platelets [3]): 86.8%
